Data as given in paper PMC10721329, “Quisinostat is a brain-penetrant radiosensitizer in glioblastoma” (JCI Insight, 2023).

What was measured:
Format in all cases: cell-based, human
[1] = tested on: BT145 cells; assay: γ-H2AX foci immunofluorescence; details: BT 145, 75 nM QST, single nuclei
Procedure: (§1) To test the DNA-damaging effects of QST in GBM cells, we treated 2 independent GSC lines with QST for 72 hours at the IC50 and analyzed changes in the levels of phosphorylated histone H2AX (γ-H2AX), a marker for DNA double-strand breaks (DSBs) ([27]). […]
(§2) anti-GAPDH (1:1000, Cell Signaling Technologies, 97166), rabbit anti-cleaved poly (ADP-ribose) polymerase Asp 214 (1:1000, Cell Signaling, 9541), rabbit anti-BDNF (1:1000, Abcam, ab108319) and mouse anti- β-actin (1:1000, Bio-Rad, MCA5775GA). Membranes were probed with fluorophore-conjugated anti-mouse or anti-rabbit secondary antibodies (1:10,000; ThermoFisher Scientific). Western blots were developed using the LI-COR Odyssey CLx imaging system (LI-COR) and quantitated using the Image Studio Lite software. All Western blots are representative images from a minimum of 3 biological replicates.
(§3) Cells were grown as adherent cultures on laminin -coated glass coverslips (Thermo Fisher Scientific) in GSC media. Twenty-four hours after plating, the cells were treated with QST or DMSO diluted in GSC media. Seventy-two hours after treatment, cells were fixed with 4% paraformaldehyde for 13 minutes at room temperature. Cells were washed with phosphate-buffered saline (PBS) and subsequently permeabilized and blocked with 5% normal goat serum (Sigma Aldrich) and 0.2% Triton X -100 in PBS (blocking solution) for 30 minutes at room temperature. […]
(§4) SuperFrost Plus microscope slides using Fluoroshield Mounting Medium containing DAPI (Abcam). […] The fraction of Ki67- and Cleaved Caspase 3– positive cells were counted from 5 independent images from each condition. The mean and standard deviation were calculated from 3 biological replicates for all control and QST-treated […]
(§5) For cell cycle analysis following short -term DMSO or QST treatment in GSC cultures, approximately 1 million cells were harvested, washed in cold 1× PBS once, and fixed with 3–4 mL of ice cold 70% ethanol, added dropwise while vortexing. […] Data from all the samples were obtained using a Fortessa flow cytometer (BD Biosciences) and analyzed using the FlowJo software (TreeStar). […]

[2] = tested on: GB126 cells; assay: γ-H2AX foci immunofluorescence; details: 86 nM QST, value per individual nucleus, image series of replicate experiments
Procedure: as §1, §2, §3, §4, §5

[3] = tested on: BT145 cells; assay: Intracellular uptake of QST and level in media, with or without washout (LC-MS/MS)
Procedure: To further understand the kinetics of drug-target engagement in GSCs, we harvested media and BT145 cells at 0, 2, 6, 10, and 24 hours with or without removal of QST (75 nM). At each time point, we measured the intracellular drug levels and concentrations in the cell media. With continuous drug exposure (no washout), the intracellular levels of QST in BT145 increased throughout the incubation period, reaching equilibrium by 10 hours (Supplemental Figure 2A). […] By contrast, in washout experiments (performed 2 hours after spiking cell media with the drug), minimal QST levels were measured intracellularly after drug removal at all time points (Supplemental Figure 2B).
QST concentrations in specimens were measured using reverse-phase LC on the AB SCIEX QTRAP6500+ LC-MS/MS system by operating electrospray in the positive ion mode. For liquid chromatographic separation, gradient elution was performed using a Phenomenex Kinetex F5 100 Å column (100 × 2.1 mm, 2.6 μm). The initial composition of the mobile phase was 70% phase A (0.1% formic acid in water) and 30% phase B (0.1% formic acid in 1:1 acetonitrile/methanol) with a 0.35 mL/min flow rate. Gradient elution was achieved as follows: mobile phase (B) was maintained at 30% from 0 to 0.3 minutes, increased to 95% from 0.3 to 0.8 minutes, maintained at 95% from 0.8 to 2.5 minutes, and decreased to 30% from 2.5 to 2.8 minutes. The total run time was 3.5 minutes. The internal standard used in this study was D8-infigratinib. The retention times for QST and D8-infigratinib were 1.6 and 1.8 minutes, respectively. Mass-to-charge ratio transitions were as follows: 395.20 → 144.00 (QST) and 568.08 → 321.00 (D8-infigratinib). LC-MS/MS analysis was performed using an Analyst 1.7 Chromatographic Data System. See Supplemental Methods for detailed PK experiments. […]
Cell Media and Lysate Sample Preparation
Cell media and lysates were thawed at room temperature. An aliquot of 20 µL of cell media or lysate was transferred into a micro centrifuge tube followed by protein precipitation with 60 µL of IS-containing methanol precipitation solution. The mixture was vortex-mixed for 10 s and centrifuged at 12000 g at 4 °C for 10 min. A 50-µL aliquot of the supernatant was transferred to an autosampler vial, and 5 µL was injected into the LC-MS/MS system for […]

For Cn1cc(CNCC2CCN(c3ncc(C(=O)NO)cn3)CC2)c2ccccc21 [QST, quisinostat], the “Number of foci/ Nucleus (ƴH2AX)” value [1] was 12, the “ƴH2AX Number of foci/ Nucleus” value ([1]; replicates n=1 to n=3) was 12 and the “Number of foci/ Nucleus (γH2AX)” value [2] was 12. The “time to equilibrium of intracellular QST level” value ([3]; BT145, 75 nM QST, continuous exposure) was at most 10 h, the “Average Cell uptake” value ([3]; no washout, 2 hrs) was 7.31 nmol/g protein and the Media ([3]; no washout, 2 hrs) was 62.85 nM. The “Media at cell collection” value ([3]; no washout, 2 hrs) was 52.25 nM, the “Average Cell uptake” value ([3]; no washout, 6 hrs) was 10.61 nmol/g protein and the Media ([3]; no washout, 6 hrs) was 67.45 nM. The “Media at cell collection” value ([3]; no washout, 6 hrs) was 45.30 nM, the “Average Cell uptake” value ([3]; no washout, 10 hrs) was 11.62 nmol/g protein and the Media ([3]; no washout, 10 hrs) was 65.15 nM. The “Media at cell collection” value ([3]; no washout, 10 hrs) was 39.70 nM, the “Average Cell uptake” value ([3]; no washout, 24 hrs) was 11.78 nmol/g protein and the Media ([3]; no washout, 24 hrs) was 64.10 nM. The “Media at cell collection” value ([3]; no washout, 24 hrs) was 30.75 nM, the “Average Cell uptake” value ([3]; with washout, 0 hrs) was 7.31 nmol/g protein and the Media ([3]; with washout, 0 hrs) was 62.85 nM. The “Media at cell collection” value ([3]; with washout, 0 hrs) was 52.25 nM, the “Average Cell uptake” value ([3]; with washout, 2 hrs) was 2.58 nmol/g protein and the Media ([3]; with washout, 2 hrs) was 64.35 nM. For the same molecule, the “Media at cell collection” value ([3]; with washout, 2 hrs) was 3.665 nM, the “Average Cell uptake” value ([3]; with washout, 6 hrs) was 3.23 nmol/g protein and the Media ([3]; with washout, 6 hrs) was 63.40 nM. For the same molecule, the “Media at cell collection” value ([3]; with washout, 6 hrs) was 5.31 nM, the “Average Cell uptake” value ([3]; with washout, 10 hrs) was 2.72 nmol/g protein and the Media ([3]; with washout, 10 hrs) was 66.40 nM. The “Media at cell collection” value ([3]; with washout, 10 hrs) was 5.605 nM, the “Average Cell uptake” value ([3]; with washout, 24 hrs) was 3.95 nmol/g protein and the Media ([3]; with washout, 24 hrs) was 58.55 nM. For the same molecule, the “Media at cell collection” value ([3]; with washout, 24 hrs) was 3.57 nM.
